Results taken from paper PMC5281058 (Journal of the American Chemical Society, 2015).
Read-outs that look alike come from different tables or passages of the source.

What was measured:
[1] = target: T1, adenosine deaminase (ADA) (Homo sapiens, UniProt P00813); conditions: conversion of ^thA to ^thI; ref 4b; cited from earlier work
T1 sequence (P00813 1-363): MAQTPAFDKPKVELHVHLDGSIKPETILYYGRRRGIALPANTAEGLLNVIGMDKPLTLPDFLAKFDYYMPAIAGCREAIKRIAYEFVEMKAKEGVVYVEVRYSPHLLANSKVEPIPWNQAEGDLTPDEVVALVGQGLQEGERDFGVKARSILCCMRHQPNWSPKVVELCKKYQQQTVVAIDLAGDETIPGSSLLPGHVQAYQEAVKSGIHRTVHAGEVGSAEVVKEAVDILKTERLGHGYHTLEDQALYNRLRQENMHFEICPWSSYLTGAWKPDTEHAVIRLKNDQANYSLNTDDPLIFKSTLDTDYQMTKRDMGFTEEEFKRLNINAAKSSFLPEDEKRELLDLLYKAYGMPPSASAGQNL

[2] = target: T1, adenosine deaminase (ADA); type: biochemical; conditions: for reaction half-life t1/2 of deamination by ADA: calculated assuming a pseudo-first order reaction, real-time absorption; for deamination rate by ADA (in words): real-time continuous measurements, compared with A to I
[3] = cited from earlier work

SMILES: Nc1ncnc2c([C@@H]3O[C@H](CO)[C@@H](O)[C@H]3O)scc12 [^thA]
- enzymatic conversion by ADA, times slower compared to adenosine [1]: approximately 20 times
- reaction half-life t1/2 of deamination by ADA [2]: 818 s
- deamination rate by ADA (in words) [2]: sluggish

SMILES: Nc1ncnc2c([C@@H]3O[C@H](CO)[C@@H](O)[C@H]3O)snc12 [^tzA]
- reaction half-life t1/2 of deamination by ADA [2]: 39 s
- deamination rate by ADA (in words) [2]: at the same rate as it deaminates A to I

SMILES: Nc1ncnc2c1ncn2[C@@H]1O[C@H](CO)[C@@H](O)[C@H]1O [adenosine]
- pKa (N1) ([3]; reported values for adenosine): 3.6– 4.2
- half-life ([2]; adenosine deaminase (ADA) enzyme): 57 s

SMILES: Nc1nc2c(ncn2[C@@H]2O[C@H](CO)[C@@H](O)[C@H]2O)c(=O)[nH]1 [guanosine]
- pKa (N7) ([3]; reported values for guanosine, first value): 3.2–3.3
- pKa (N1) ([3]; reported values for guanosine, second value): 9.2–9.6

SMILES: O=c1ccn([C@@H]2O[C@H](CO)[C@@H](O)[C@H]2O)c(=O)[nH]1 [uridine]
- pKa (N3 deprotonation) ([3]; values reported for N3 deprotonation in uridine): 9.20–9.25
